Data reported in the NIST ThermoML archive (doi:10.1021/je300853z).
Numbers after ± are expanded uncertainties.

What was measured:
[1] = excess molar enthalpy (molar enthalpy of mixing); xn = mol fraction of the nth substance listed; conditions: 308.15 K, 101 kPa, Liquid, Calvet calorimetry
[2] = molar heat capacity at constant pressure; xn = mol fraction of the nth substance listed; conditions: 101 kPa, Liquid, Small sample (50 mg) DSC

CCCCCCCC[n+]1ccc2ccccc2c1.N#C[S-] [2-octylisoquinolinium thiocyanate] + O
[1]
Conditions | excess molar enthalpy [kcal/mol]
x1 = 0.8523 | -0.0736 ± 0.000765
x1 = 0.8782 | -0.0631 ± 0.000669
x1 = 0.9058 | -0.0516 ± 0.000598
x1 = 0.9352 | -0.039 ± 0.000502
x1 = 0.9665 | -0.0244 ± 0.000382

molar heat capacity at constant pressure [J/K/mol], [2]
Conditions | x1 = 0.3977 | x1 = 0.5237 | x1 = 0.5945 | x1 = 0.7214 | x1 = 0.8097 | x1 = 0.8935
278.15 K | 248 ± 5 | 295 ± 6 | 334 ± 7 | 386 ± 8 | 423 ± 8 | 467 ± 9
283.15 K | 250 ± 5 | 304 ± 6 | 337 ± 7 | 388 ± 8 | 426 ± 9 | 470 ± 9
288.15 K | 251 ± 5 | 306 ± 6 | 340 ± 7 | 391 ± 8 | 429 ± 9 | 474 ± 9
293.15 K | 253 ± 5 | 309 ± 6 | 342 ± 7 | 393 ± 8 | 432 ± 9 | 476 ± 10
298.15 K | 255 ± 5 | 311 ± 6 | 344 ± 7 | 396 ± 8 | 434 ± 9 | 479 ± 10
303.15 K | 257 ± 5 | 313 ± 6 | 347 ± 7 | 398 ± 8 | 437 ± 9 | 482 ± 10
308.15 K | 258 ± 5 | 315 ± 6 | 349 ± 7 | 400 ± 8 | 439 ± 9 | 484 ± 10
313.15 K | 260 ± 5 | 316 ± 6 | 351 ± 7 | 402 ± 8 | 441 ± 9 | 487 ± 10
318.15 K | 261 ± 5 | 318 ± 6 | 353 ± 7 | 404 ± 8 | 441 ± 9 | 490 ± 10
323.15 K | 261 ± 5 | 319 ± 6 | 355 ± 7 | 405 ± 8 | 442 ± 9 | 492 ± 10
328.15 K | 262 ± 5 | 320 ± 6 | 357 ± 7 | 406 ± 8 | 443 ± 9 | 495 ± 10
333.15 K | 263 ± 5 | 321 ± 6 | 358 ± 7 | 408 ± 8 | 443 ± 9 | 497 ± 10
338.15 K | 263 ± 5 | 322 ± 6 | 360 ± 7 | 408 ± 8 | 442 ± 9 | 500 ± 10
